Assay results as given in US11518758B2, “Heteroarylaminopyrimidine amide autophagy inhibitors and methods of use thereof” (Deciphera Pharmaceuticals, LLC, priority 2019, dated 2022).

Columns and labels:
ULK1 kinase [1] = biological target: T1, ULK1 kinase (Homo sapiens, UniProt O75385, E37A/K38A); assay: Biochemical assay for ULK1.3 (coupled pyruvate kinase/lactate dehydrogenase assay); details: 0.1 nM ULK1 (from Beryllium), peptide substrate, 1 mM ATP
T1 construct: (residues 1-283; ID NO: 2); purchased Beryllium
T1 sequence (O75385 1-283 E37A/K38A): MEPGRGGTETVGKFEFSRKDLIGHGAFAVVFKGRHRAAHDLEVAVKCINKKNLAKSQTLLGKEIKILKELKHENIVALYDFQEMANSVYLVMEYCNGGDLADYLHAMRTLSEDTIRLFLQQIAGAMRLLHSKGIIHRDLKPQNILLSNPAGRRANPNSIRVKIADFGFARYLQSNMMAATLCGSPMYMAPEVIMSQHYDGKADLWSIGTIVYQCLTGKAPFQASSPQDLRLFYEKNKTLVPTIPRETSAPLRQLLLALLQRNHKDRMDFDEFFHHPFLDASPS
Protocol: Example 175. Biochemical Assay for ULK1.3
Activity of ULK1 kinase was determined spectroscopically using a coupled pyruvate kinase/lactate dehydrogenase assay that continuously monitors the ATP hydrolysis-dependent oxidation of NADH (e.g., Schindler et al. Science (2000) 289: 1938-1942). Assays were conducted in 384-well plates (100 uL final volume) using 0.1 nM ULK1 (from Beryllium), 0.075 mM peptide substrate (YANWLAASIYLDGKKK (SEQ ID NO: 5)), 1.5 units pyruvate kinase, 2.1 units lactate dehydrogenase, 1 mM phosphoenol pyruvate, 0.28 mM NADH and 1 mM ATP in assay buffer (100 mM Tris, pH 7.5, 15 mM MgCl2, 0.5 mM DTT, 0.004% (w/v) BSA, and 0.004% Triton X-100). Inhibition of ULK1 was measured by adding serial diluted test compound (final assay concentration of 1% DMSO). A decrease in absorption at 340 nm was monitored continuously for 6 hours at 30° C. on a multi-mode microplate reader (BioTek). The reaction rate was calculated using the 2-3 h time frame. The reaction rate at each concentration of compound was converted to percent inhibition using controls (i.e. reaction with no test compound and reaction with a known inhibitor) and IC50 values were calculated using software routines in Prism (GraphPad software).

LRRK2 kinase = biological target: T2, LRRK2 kinase (Homo sapiens, UniProt Q5S007); assay: Biochemical assay for LRRK2 (coupled pyruvate kinase/lactate dehydrogenase assay); details: 26.4 nM LRRK2 (residues 970-2528), 0.1 mM peptide substrate, 1 mM ATP
T2 construct: purchased Thermo Fisher
Protocol: Example 182. Biochemical Assay for LRRK2 (SEQ. ID NO. 4)
Activity of LRRK2 kinase was determined spectroscopically using a coupled pyruvate kinase/lactate dehydrogenase assay that continuously monitors the ATP hydrolysis-dependent oxidation of NADH (e.g., Schindler et al. Science (2000) 289: 1938-1942). Assays were conducted in 384-well plates (100 uL final volume) using 26.4 nM LRRK2 (Thermo Fisher), 0.1 mM peptide substrate (RLGRDKYKTLRQIRQ (SEQ ID NO: 6)), 1.5 units pyruvate kinase, 2.1 units lactate dehydrogenase, 1 mM phosphoenol pyruvate, 0.28 mM NADH and 1 mM ATP in assay buffer (100 mM Tris, pH 7.5, 15 mM MgCl2, 0.5 mM DTT, 0.004% (w/v) BSA, and 0.004% Triton X-100). Inhibition of LRRK2 was measured by adding serial diluted test compound (final assay concentration of 1% DMSO). A decrease in absorption at 340 nm was monitored continuously for 6 hours at 30° C. on a multi-mode microplate reader (BioTek). The reaction rate was calculated using the 2-3 h time frame. The reaction rate at each concentration of compound was converted to percent inhibition using controls (i.e. reaction with no test compound and reaction with a known inhibitor) and IC50 values were calculated using software routines in Prism (GraphPad software).

ULK1 kinase [2] = biological target: T3, ULK1 kinase (Homo sapiens, UniProt O75385); assay: Biochemical assay for ULK1.2 (coupled pyruvate kinase/lactate dehydrogenase assay); details: 19 nM ULK1 (Eurofins), myelin basic protein, 1 mM ATP
T3 construct: purchased Eurofins 14-959
T3 sequence (O75385 with tags, fused parts or gaps): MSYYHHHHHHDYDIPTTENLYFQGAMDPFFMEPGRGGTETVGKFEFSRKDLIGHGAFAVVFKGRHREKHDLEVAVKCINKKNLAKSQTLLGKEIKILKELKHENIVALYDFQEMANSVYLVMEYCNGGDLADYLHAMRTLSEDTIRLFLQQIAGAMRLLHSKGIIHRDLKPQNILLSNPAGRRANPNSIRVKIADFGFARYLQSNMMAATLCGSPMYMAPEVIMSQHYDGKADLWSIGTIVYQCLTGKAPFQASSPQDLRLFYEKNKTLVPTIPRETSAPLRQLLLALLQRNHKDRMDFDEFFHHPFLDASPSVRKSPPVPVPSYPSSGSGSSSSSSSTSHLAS
In short: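 NADH-coupled PK/LDH read-out at 340 nm, run with 19 nM ULK1, 0.25 mg/mL myelin basic protein and 1 mM ATP. Buffer was 100 mM Tris pH 7.5 with 15 mM MgCl2 and 1% DMSO final. Monitoring was continuous for 6 hours at 30° C; rates from the 2-3 h window were converted to percent inhibition and fitted to a four-parameter curve for IC50.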

[3] = tested on: phospho-Serine 318 ATG13 (pATG13), ULK kinase substrate, in A549 (KRAS mutant) cells; assay: pATG13 levels of mutant KRas A549 cells after treatment with ULK inhibitors in combination with trametinib (ELISA); assay type: cell-based, human; details: with 250 nM trametinib
In short: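 A549 cells grown overnight were treated overnight at 37 °C with a dose response of test compound plus 250 nM trametinib (final) or DMSO. Lysates were assayed by sandwich ELISA, with total ATG13 capture and biotinylated pS318-ATG13 detection read at 450 nm minus 540 nm, giving % phosphorylation against control and IC50.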

[4] = tested on: phospho-Serine 318 ATG13 (pATG13) in MiaPaCa-2 cells; assay: pATG13 levels of mutant KRas MiaPaCa-2 cells after treatment with ULK inhibitors in combination with trametinib (ELISA); assay type: cell-based, human
Protocol: Example 178. pATG13 Levels of Mutant KRas MiaPaCa-2 Cells after Treatment with ULK Inhibitors in Combination with Trametinib
MiaPaCa-2 human pancreatic cancer cells (10000 cells/well) were added to a 384-well tissue-culture treated plate in 50 μL of pre-warmed DMEM medium supplemented with 10% characterized fetal bovine serum (Invitrogen, Carlsbad, Calif.), 100 units/mL penicillin G, 100 μg/mL streptomycin, and 2.5% Horse Serum and allowed to grow overnight at 37° C., 5% CO2, and 95% humidity. The following day, 10 μL of media containing trametinib or DMSO as a control was added to wells. The final concentration of trametinib in wells was 250 nM. A dose response of a test compound (0.6 μL per well) was added. DMSO (0.6 μL) was added to control wells. The plate was briefly shaken to mix wells and then incubated at 37° C. overnight. The next day, the media was aspirated and cells were washed with Dulbecco's Phosphate Buffered Saline (Gibco). Cells were lysed using MPER lysis buffer (Pierce, Rockford, Ill.) containing Halt Phosphatase and Protease Inhibitors (Pierce, Rockford, Ill.) and Phosphatase inhibitor cocktail 2 (Sigma, St. Louis, Mo.) at 4° C. for 10 minutes with shaking.
Cellular levels of phospho-Serine 318 ATG13 (pATG13) were measured via an ELISA method. Total ATG13 Antibody (Cell Signaling Cat #13273) was used to coat the wells. The plate was incubated at 4° C. overnight and washed with ELISA wash buffer (Biolegend Cat #421601). The wells were then blocked with assay diluent (Biolegend Cat #421203) for 1 hour at room temperature. Plate wells were washed with ELISA wash buffer. Cell lysate was added to wells and incubated at room temperature for 2 hours. Plate wells were washed with ELISA wash buffer. Biotinylated pS318-ATG13 antibody (Rockland Immunochemicals Cat #600-401-C49) was diluted in assay diluent and added to each well and incubated at room temperature for 1 hour. Plate wells were washed with ELISA wash buffer. Streptavidin linked to horseradish peroxidase (Thermo Fisher Cat #21140) was diluted in assay diluent and added to each well and incubated at room temperature for 1 hour. Plate wells were washed with ELISA wash buffer. High sensitivity TMB substrate (Biolegend Cat #421101) was added to each well and incubated at room temperature for 20 minutes. The reaction was stopped with 2N Sulfuric Acid. The plate was analyzed at on a plate reader measuring absorbance at 450 nm and 540 nm (background). Signal was calculated by first subtracting the background absorbance at 540 nm from the absorbance at 450 nm for each well. Next, the background corrected absorbance at 450 nm from blank wells was subtracted from test wells. Data was compared to control wells to determine % ATG13 phosphorylation. GraphPad Prism was used to calculate IC50 values.

T2 sequence (Q5S007 with tags, fused parts or gaps): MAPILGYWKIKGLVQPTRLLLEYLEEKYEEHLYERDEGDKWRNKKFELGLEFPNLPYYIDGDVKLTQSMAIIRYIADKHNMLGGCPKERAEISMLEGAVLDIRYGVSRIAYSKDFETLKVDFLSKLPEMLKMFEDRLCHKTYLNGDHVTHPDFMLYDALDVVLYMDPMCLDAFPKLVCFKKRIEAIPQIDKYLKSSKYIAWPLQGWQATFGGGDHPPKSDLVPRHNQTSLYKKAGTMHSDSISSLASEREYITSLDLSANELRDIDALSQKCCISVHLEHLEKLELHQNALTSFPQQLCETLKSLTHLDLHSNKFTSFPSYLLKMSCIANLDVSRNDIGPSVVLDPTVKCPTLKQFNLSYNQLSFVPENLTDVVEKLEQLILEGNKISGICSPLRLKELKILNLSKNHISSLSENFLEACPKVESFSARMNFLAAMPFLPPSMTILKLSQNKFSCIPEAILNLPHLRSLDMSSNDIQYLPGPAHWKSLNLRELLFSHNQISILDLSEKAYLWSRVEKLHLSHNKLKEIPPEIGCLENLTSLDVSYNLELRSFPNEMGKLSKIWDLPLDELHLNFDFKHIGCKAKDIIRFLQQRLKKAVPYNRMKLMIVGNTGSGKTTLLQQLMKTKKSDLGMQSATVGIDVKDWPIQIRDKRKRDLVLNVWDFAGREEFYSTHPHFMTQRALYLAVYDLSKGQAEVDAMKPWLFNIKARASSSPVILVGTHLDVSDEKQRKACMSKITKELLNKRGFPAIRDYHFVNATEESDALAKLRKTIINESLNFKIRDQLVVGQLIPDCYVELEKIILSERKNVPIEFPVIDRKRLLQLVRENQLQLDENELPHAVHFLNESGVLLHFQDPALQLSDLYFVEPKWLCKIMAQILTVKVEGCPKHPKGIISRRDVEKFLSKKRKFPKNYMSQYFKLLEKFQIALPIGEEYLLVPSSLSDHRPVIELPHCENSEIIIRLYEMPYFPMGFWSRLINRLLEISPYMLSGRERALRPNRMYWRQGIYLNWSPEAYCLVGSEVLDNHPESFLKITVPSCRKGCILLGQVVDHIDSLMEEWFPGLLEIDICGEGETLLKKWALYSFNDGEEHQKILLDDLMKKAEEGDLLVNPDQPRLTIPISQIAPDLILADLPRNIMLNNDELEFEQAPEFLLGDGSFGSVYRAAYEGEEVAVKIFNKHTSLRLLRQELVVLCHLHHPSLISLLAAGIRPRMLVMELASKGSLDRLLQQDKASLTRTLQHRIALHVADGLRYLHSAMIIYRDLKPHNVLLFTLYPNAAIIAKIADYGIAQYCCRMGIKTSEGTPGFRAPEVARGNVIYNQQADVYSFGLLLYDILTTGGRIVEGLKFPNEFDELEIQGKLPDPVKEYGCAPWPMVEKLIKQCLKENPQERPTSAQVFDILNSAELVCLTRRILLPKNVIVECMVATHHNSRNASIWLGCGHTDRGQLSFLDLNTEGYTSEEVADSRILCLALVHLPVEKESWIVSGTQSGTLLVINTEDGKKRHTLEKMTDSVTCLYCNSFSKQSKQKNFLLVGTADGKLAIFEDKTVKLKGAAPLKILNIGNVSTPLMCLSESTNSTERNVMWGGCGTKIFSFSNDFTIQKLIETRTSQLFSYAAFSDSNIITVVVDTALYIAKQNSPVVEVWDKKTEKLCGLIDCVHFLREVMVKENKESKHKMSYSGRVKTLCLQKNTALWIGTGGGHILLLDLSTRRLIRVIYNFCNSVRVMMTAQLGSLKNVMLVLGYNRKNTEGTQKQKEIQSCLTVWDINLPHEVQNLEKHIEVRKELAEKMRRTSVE

SMILES | IC50 (ULK1 kinase [1]) | IC50 (LRRK2 kinase) | further results
Cc1nn(CCN(C)C)cc1Nc1ncc(Br)c(NCCCN2CCCOCC2=O)n1 [Example 122] | 100 to 500 nM | 100 to 300 nM | 
Cc1nn(C2CCN(C(C)C)CC2)cc1Nc1ncc(Cl)c(NCCCN2CCOCCC2=O)n1 [Example 143] | 100 to 500 nM |  | 
Cc1nn(CCCN2CCOCC2)cc1Nc1ncc(C2CC2)c(NCCCN2CCCOCC2=O)n1 [Example 115] | > 500 nM | > 600 nM | 
Cc1nn(CCN(C)C)cc1Nc1ncc(C2CC2)c(NCCCN2CCCOCC2=O)n1 [Example 116] | > 500 nM | > 600 nM | 
CCc1nn(C2CCN(C(C)C)CC2)cc1Nc1ncc(C2CC2)c(NCCCN2CCOCC2=O)n1 [Example 76] | > 500 nM | > 600 nM | 
Cc1nn(CCN(C)C)cc1Nc1ncc(Br)c(NCCCN2CCOCCC2=O)n1 [Example 144] | 100 to 500 nM |  | 
CCN(CC)CCn1cc(Nc2ncc(C(F)(F)F)c(NCCCN3CCOCCC3=O)n2)c(C)n1 [Example 146] | 100 to 500 nM |  | 
Cc1nn(C(C)(C)C(N)=O)cc1Nc1ncc(C(F)(F)F)c(NCCCN2CCOCCC2=O)n1 [Example 145] | 100 to 500 nM | 1 to 100 nM | 
Cc1nn(C2CCN(C(C)C)CC2)cc1Nc1ncc(C2CC2)c(NCCCN2CCOCC2=O)n1 [Example 75] | > 500 nM |  | 
CCc1nn(C2CCN(CC)CC2)cc1Nc1ncc(Br)c(NCCCN2CCCCC2=O)n1 [Example 54] |  |  | IC50 (ULK1 kinase [2]): 25 to 100 nM; IC50 [3]: 100 to 300 nM; IC50 [4]: 100 to 300 nM
Cc1nn(CCCN2CCOCC2)cc1Nc1ncc(Cl)c(NCCCN2CCCOCC2=O)n1 [Example 120] | > 500 nM |  | 
Cc1nn(CCN(C)C)cc1Nc1ncc(C2CC2)c(NCCCN2CCOCCC2=O)n1 [Example 140] | > 500 nM | > 600 nM | 
Cc1nn(CCCN2CCOCC2)cc1Nc1ncc(Br)c(NCCCN2CCCOCC2=O)n1 [Example 121] | 100 to 500 nM |  | 
CCN1CCC(n2cc(Nc3ncc(C4CC4)c(NCCCN4CCOCCC4=O)n3)c(C)n2)CC1 [Example 142] | > 500 nM |  | 
Cc1nn(CCN(C)C)cc1Nc1ncc(Cl)c(NCCCN2CCCOCC2=O)n1 [Example 123] | > 500 nM | > 600 nM | 
Cc1nn(C(C)(C)C(N)=O)cc1Nc1ncc(C(F)(F)F)c(NCCCN2CCCCC2=O)n1 [Example 67] | > 500 nM | 1 to 100 nM | 
Cc1nn(C2CCN(C(C)C)CC2)cc1Nc1ncc(C2CC2)c(NCCCN2CCCOCC2=O)n1 [Example 114] | > 500 nM | > 600 nM | 
Cc1nn(CCCN2CCOCC2)cc1Nc1ncc(C2CC2)c(NCCCN2CCOCCC2=O)n1 [Example 139] | > 500 nM | > 600 nM | 

The next lines start with results.

IC50 (ULK1 kinase [1]) | IC50 (LRRK2 kinase) | SMILES | further results
100 to 500 nM |  | Cc1nn(CCN(C)C)cc1Nc1ncc(C(F)(F)F)c(NCCCN2CCOCCC2=O)n1 [Example 137] | 
100 to 500 nM | > 600 nM | Cc1nn(C2CCN(C)CC2)cc1Nc1ncc(C2CC2)c(NCCCN2CCOCCC2=O)n1 [Example 141] | 
1 to 25 nM |  | CCc1nn(C2CCN(C)CC2)cc1Nc1ncc(C(F)(F)F)c(NCCCN2CCOCCC2=O)n1 [Example 136] | 
100 to 500 nM | 100 to 300 nM | Cc1nn([C@@H]2CCN(C)C2)cc1Nc1ncc(Cl)c(NCCCN2CCCOCC2=O)n1 [Example 113] | 
100 to 500 nM | 300 to 600 nM | CCc1nn(C2CCN(C(C)C)CC2)cc1Nc1ncc(Cl)c(NCCCN2CCCOC2=O)n1 [Example 73] | 
> 500 nM | > 600 nM | Cc1cn(C2CCN(C)CC2)nc1Nc1ncc(C(F)(F)F)c(NCCCN2CCCOC2=O)n1 [Example 126] | 
> 500 nM | 1 to 100 nM | Cc1nn(C(C)(C)C(N)=O)cc1Nc1ncc(C(F)(F)F)c(NCCCN2CCCOCC2=O)n1 [Example 125, 2-methyl-2-(3-methyl-4-((4-((3-(3-oxo-1,4-oxazepan-4-yl)propyl)amino)-5-(trifluoromethyl)pyrimidin-2-yl)amino)-1H-pyrazol-1-yl)propanamide] | 
25 to 100 nM |  | Cc1nn(CCN(C)C)cc1Nc1ncc(C(F)(F)F)c(NCCCN2CCCOCC2=O)n1 [Example 117] | 
> 500 nM |  | CCc1nn(C2CCN(C)CC2)cc1Nc1ncc(C2CC2)c(NCCCN2CCCOCC2=O)n1 [Example 119] | 
100 to 500 nM | 1 to 100 nM | Cc1nn(C(C)(C)C#N)cc1Nc1ncc(C(F)(F)F)c(NCCCN2CCCOCC2=O)n1 [Example 172, 2-methyl-2-(3-methyl-4-((4-((3-(3-oxo-1,4-oxazepan-4-yl)propyl)amino)-5-(trifluoromethyl)pyrimidin-2-yl)amino)-1H-pyrazol-1-yl)propanenitrile] | 
